Measured values: patent US8883963B2 (Cadila Healthcare Limited, priority 2007, dated 2014)
Non-standard residues stand in square brackets, D forms with d. Residues, ends and D or L forms follow the SMILES beside them. ξ: configuration not given here. *: point of attachment. X5 = CCc1cc(OC)ccc1-c1ccc(CC(N*)C(=S)NC(CCCc2ccccc2F)C(N)=O)cc1; Leu(5,5,5,5',5',5'-F6) = N[C@@H](CC(C(F)(F)F)C(F)(F)F)C(=O)O; ξBip(2'-Et-4'-OMe) = CCc1cc(OC)ccc1-c1ccc(CC(N)C(=O)O)cc1; ξNva(5-(3,5-Me2-Ph)) = Cc1cc(C)cc(CCCC(N)C(=O)O)c1; ξNva(5-(4-Cl-2-MePh)) = Cc1cc(Cl)ccc1CCCC(N)C(=O)O; ξNva(5-(3-Cl-Ph)) = NC(CCCc1cccc(Cl)c1)C(=O)O; ξαMePhe(2-F) = CC(N)(Cc1ccccc1F)C(=O)O; aThr = C[C@H](O)[C@H](N)C(=O)O; Ac5c = NC1(C(=O)O)CCCC1; Aib = CC(C)(N)C(=O)O

What was measured:
[1] = Stability in liver microsomes; format: in vitro ADME; conditions: 2 μM peptidomimetic, human liver microsomes, 37° C.
Procedure: (§1) Reactions were terminated by the addition of TFA/H2O (15 mL, 10% (v/v)). […] The column was equilibrated with TFA/H20, at a flow rate of 1 mL/min.

[2] = Stability in simulated intestinal fluid; format: in vitro ADME; conditions: 2 μM peptidomimetic, simulated intestinal fluid pH 7.5, 37° C.; for half-life at 2 μM: read-out: half-life (t1/2) when incubated with simulated intestinal fluid
Procedure: as §1

DPP IV = DPP IV (Homo sapiens, UniProt P27487); test: Stability against DPP IV enzyme; format: in vitro ADME; conditions: 37° C.; for % degradation of peptidomimetics in 24 h when incubated with DPP-IV enzyme: 2 μM peptidomimetic; for half-life at 2 μM: DPP IV enzyme, pH 7.8, 2 μM peptidomimetic, read-out: half-life (t1/2) when incubated with DPP-IV enzyme
DPP IV, sequence (P27487 whole entry, species assumed): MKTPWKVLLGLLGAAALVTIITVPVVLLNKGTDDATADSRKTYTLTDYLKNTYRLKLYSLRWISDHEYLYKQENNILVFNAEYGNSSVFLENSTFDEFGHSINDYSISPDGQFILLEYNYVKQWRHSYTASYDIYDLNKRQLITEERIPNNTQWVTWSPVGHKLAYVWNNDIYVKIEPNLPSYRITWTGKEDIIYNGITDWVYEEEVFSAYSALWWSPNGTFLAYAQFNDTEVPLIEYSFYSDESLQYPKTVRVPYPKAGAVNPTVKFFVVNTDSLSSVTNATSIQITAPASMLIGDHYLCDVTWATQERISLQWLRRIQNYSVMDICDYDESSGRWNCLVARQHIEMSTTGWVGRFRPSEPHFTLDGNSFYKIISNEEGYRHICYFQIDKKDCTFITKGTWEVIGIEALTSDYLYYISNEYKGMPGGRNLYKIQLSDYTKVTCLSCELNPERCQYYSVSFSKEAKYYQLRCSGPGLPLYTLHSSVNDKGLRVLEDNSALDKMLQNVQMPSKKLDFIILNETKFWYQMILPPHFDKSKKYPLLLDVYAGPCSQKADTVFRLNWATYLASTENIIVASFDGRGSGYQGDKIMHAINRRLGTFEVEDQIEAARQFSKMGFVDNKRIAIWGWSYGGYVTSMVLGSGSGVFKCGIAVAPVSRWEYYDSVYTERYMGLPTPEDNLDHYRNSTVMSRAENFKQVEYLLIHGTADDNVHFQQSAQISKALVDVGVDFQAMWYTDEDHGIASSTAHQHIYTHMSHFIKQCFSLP
Procedure: as §1

[3] = Stability in human plasma; format: in vitro ADME; conditions: 2 μM peptidomimetic, pooled human plasma, 37° C.; for half-life at 2 μM: pH 7.8, read-out: half-life (t1/2) when incubated with human plasma
Procedure: as §1

[4] = Stability in simulated gastric fluid; format: in vitro ADME; conditions: 2 μM peptidomimetic, simulated gastric fluid pH 1.5, 37° C.; for half-life at 2 μM: read-out: half-life (t1/2) when incubated with simulated gastric fluid
Procedure: as §1

[5] = system: RIN5F (Rat Insulinoma) cells; test: In vitro glucose-dependent insulin secretion (RIN5F cell assay screening protocol); format: cell-based; conditions: 16.7 mM glucose load
Procedure: RIN5F (Rat Insulinoma) cells were cultured in RPMI 1640 medium supplemented with sodium pyruvate (1 mM) HEPES and Glucose (4.5 g/L) in a humidified incubator (5% CO2), at 37° C. After trypsinization, RIN5F cells were seeded at a concentration of 0.2×10^6 cells per well, in 12 well plates.
The buffer was replaced after 40 min. and the cells were incubated (37° C.) with the test peptidomimetics, at different concentration, for 30 min., both in the presence (16.7 mM) and absence (0 mM) of glucose load. The supernatant was collected and the insulin amount was measured by ultra sensitive Rat insulin ELISA kit (Crystal Chem, IL). The protein was estimated in the supernatant using Bicinchoninic Acid kit, according to the manufacturer's protocol (Sigma Aldrich, MO). The total insulin content obtained in Pico-gram (pg) was divided with the total protein (μg) in order to normalize for differences in cell density between wells.

human glucagon receptor = target: T1, human glucagon receptor (Homo sapiens, UniProt P47871); test: In vitro human glucagon antagonist activity (inhibition of cAMP production) in CHO/human glucagon R cells; format: cell-based; conditions: with saturated concentration of glucagon peptide
T1 construct: The full-length cDNA was cloned in pcDNA3.1 (Invitrogen); expressed in transfected cells
T1 sequence (P47871 26-477): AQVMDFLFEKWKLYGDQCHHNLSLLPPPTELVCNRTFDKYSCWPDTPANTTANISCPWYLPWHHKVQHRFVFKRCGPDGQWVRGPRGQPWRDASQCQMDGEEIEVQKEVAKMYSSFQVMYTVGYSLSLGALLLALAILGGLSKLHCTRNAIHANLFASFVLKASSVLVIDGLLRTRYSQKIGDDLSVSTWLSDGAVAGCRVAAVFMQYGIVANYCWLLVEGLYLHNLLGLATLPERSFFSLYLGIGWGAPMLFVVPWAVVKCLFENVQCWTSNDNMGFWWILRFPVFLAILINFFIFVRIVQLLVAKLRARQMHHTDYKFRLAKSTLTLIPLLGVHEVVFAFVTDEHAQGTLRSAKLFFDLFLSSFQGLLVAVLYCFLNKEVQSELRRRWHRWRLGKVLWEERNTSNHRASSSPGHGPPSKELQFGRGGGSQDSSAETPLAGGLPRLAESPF

Row | half-life (t1/2) when incubated with liver microsomes [1] | % degradation of peptidomimetics in 24 h when incubated with liver microsomes [1] [%] | % degradation of peptidomimetics in 24 h when incubated with simulated intestinal fluid [2] [%] | half-life at 2 μM [2] [h] | % degradation of peptidomimetics in 24 h when incubated with DPP-IV enzyme (DPP IV) [%] | half-life at 2 μM (DPP IV) [h] | % degradation of peptidomimetics in 24 h when incubated with human plasma [3] [%] | half-life at 2 μM [3] [h] | % degradation of peptidomimetics in 24 h when incubated with simulated gastric fluid [4] [%] | half-life at 2 μM [4] [h] | Structure (SMILES) | Insulin secretion ([5]; 0.1 nM test compd.) [pg/µg/h] | Insulin secretion ([5]; 1 nM test compd.) [pg/µg/h] | Insulin secretion ([5]; 10 nM test compd.) [pg/µg/h] | Human Glucagon receptor antagonistic activity shown as inhibition of cAMP production of Glucagon peptide (human glucagon receptor; 1 nM test compound) [pmol/ml/μg prt] | Human Glucagon receptor antagonistic activity shown as inhibition of cAMP production of Glucagon peptide (human glucagon receptor; 10 nM test compound) [pmol/ml/μg prt] | Human Glucagon receptor antagonistic activity shown as inhibition of cAMP production of Glucagon peptide (human glucagon receptor; 100 nM test compound) [pmol/ml/μg prt] | Human Glucagon receptor antagonistic activity shown as inhibition of cAMP production of Glucagon peptide (human glucagon receptor; 1 μM test compound) [pmol/ml/μg prt] | Human Glucagon receptor antagonistic activity shown as inhibition of cAMP production of Glucagon peptide (human glucagon receptor; 10 μM test compound) [pmol/ml/μg prt]
1 | (5) h | 35 | 00 | > 24 | 00 | > 24 | 00 | > 24 | 00 | > 24 | CCc1cc(OC)ccc1-c1ccc(CC(NC(=O)[C@H](CC(=O)O)NC(=O)[C@H](CO)NC(=O)[C@@H](NC(=O)C(C)(Cc2ccccc2F)NC(=O)[C@@H](NC(=O)CNC(=O)[C@H](CC(C(F)(F)F)C(F)(F)F)NC(=O)C(C)(C)NC(=O)[C@@H](N)Cc2c[nH]cn2)[C@@H](C)O)[C@@H](C)O)C(=O)NC(CCCc2cccc(Cl)c2)C(N)=O)cc1 (stereo partly drawn) [compound 236] (H-H[Aib][Leu(5,5,5,5',5',5'-F6)]GT[ξαMePhe(2-F)]TSD[ξBip(2'-Et-4'-OMe)][ξNva(5-(3-Cl-Ph))]-NH2) | – | – | – | – | – | – | – | –
2 | (5) h | 35 | 00 | > 24 | 00 | > 24 | 00 | > 24 | 00 | > 24 | CCc1cc(OC)ccc1-c1ccc(CC(NC(=O)[C@H](CC(=O)O)NC(=O)[C@H](CO)NC(=O)[C@@H](NC(=O)[C@H](Cc2ccccc2)NC(=O)[C@@H](NC(=O)CNC(=O)[C@H](CCC(N)=O)NC(=O)[C@H](CO)NC(=O)[C@@H](N)Cc2c[nH]cn2)[C@@H](C)O)[C@@H](C)O)C(=O)NC(CCCc2ccc(Cl)cc2C)C(N)=O)cc1 (stereo partly drawn) [compound 8] (H-HSQGTFTSD[ξBip(2'-Et-4'-OMe)][ξNva(5-(4-Cl-2-MePh))]-NH2) | – | – | – | – | – | – | – | –
3 | – | – | – | – | – | – | – | – | – | – | CCc1cc(OC)ccc1-c1ccc(CC(NC(=O)[C@H](CC(=O)O)NC(=O)[C@H](CO)NC(=O)[C@@H](NC(=O)C(C)(Cc2ccccc2F)NC(=O)[C@@H](NC(=O)CNC(=O)[C@H](CC(C(F)(F)F)C(F)(F)F)NC(=O)C(C)(C)NC(=O)[C@@H](N)Cc2c[nH]cn2)[C@@H](C)O)[C@@H](C)O)C(=O)NC(CCCc2ccc(Cl)cc2C)C(N)=O)cc1 (single isomer, unassigned) [compound 237] | 12.0 ± 0.14 | 14.3 ± 0.12 | 27.8 ± 0.32 | 21 ± 0.11 | 19 ± 0.02 | 18 ± 0.07 | 18 ± 0.03 | 16 ± 0.02
4 | – | – | – | – | – | – | – | – | – | – | CCc1cc(OC)ccc1-c1ccc(CC(NC(=O)[C@H](CC(=O)O)NC(=O)[C@H](CO)NC(=O)[C@@H](NC(=O)[C@H](Cc2ccccc2)NC(=O)[C@@H](NC(=O)CNC(=O)[C@H](CCC(N)=O)NC(=O)C2(NC(=O)[C@@H](N)Cc3c[nH]cn3)CCCC2)[C@@H](C)O)[C@@H](C)O)C(=O)NC(CCCc2cc(C)cc(C)c2)C(N)=O)cc1 (stereo partly drawn) [compound 26] (H-H[Ac5c]QGTFTSD[ξBip(2'-Et-4'-OMe)][ξNva(5-(3,5-Me2-Ph))]-NH2) | 16.6 ± 0.41 | 22.9 ± 0.32 | 36.6 ± 0.19 | 15 ± 0.11 | 12 ± 0.13 | 8 ± 0.09 | 4 ± 0.01 | 2 ± 0.08
5 | – | – | – | – | – | – | – | – | – | – | CCc1cc(OC)ccc1-c1ccc(CC(NC(=O)[C@H](CC(=O)O)NC(=O)[C@H](CO)NC(=O)[C@@H](NC(=O)C(C)(Cc2ccccc2F)NC(=O)[C@@H](NC(=O)CNC(=O)[C@H](CC(C(F)(F)F)C(F)(F)F)NC(=O)C(C)(C)NC(=O)[C@@H](N)Cc2c[nH]cn2)[C@H](C)O)[C@H](C)O)C(=S)NC(CCCc2ccccc2F)C(N)=O)cc1 (stereo partly drawn) [compound 218] (H-H[Aib][Leu(5,5,5,5',5',5'-F6)]G[aThr][ξαMePhe(2-F)][aThr]SD-X5) | 12.3 ± 0.33 | 14.8 ± 0.16 | 28.1 ± 0.22 | 9 ± 0.11 | 6 ± 0.12 | 5 ± 0.14 | 3 ± 0.22 | 0
6 | – | – | – | – | – | – | – | – | – | – | CCc1cc(OC)ccc1-c1ccc(CC(NC(=O)[C@H](CC(=O)O)NC(=O)[C@H](CO)NC(=O)[C@@H](NC(=O)C(C)(Cc2ccccc2F)NC(=O)[C@@H](NC(=O)CNC(=O)[C@H](CCC(N)=O)NC(=O)C(C)(C)NC(=O)[C@@H](N)Cc2c[nH]cn2)[C@@H](C)O)[C@@H](C)O)C(=O)NC(CCCc2ccc(Cl)cc2C)C(N)=O)cc1 (single isomer, unassigned) [compound 40] | 12.6 ± 0.20 | 15.9 ± 0.31 | 28.4 ± 0.11 | 18 ± 0.07 | 16 ± 0.01 | 12 ± 0.03 | 8 ± 0.02 | 6 ± 0.08
7 | – | – | – | – | – | – | – | – | – | – | CCc1cc(OC)ccc1-c1ccc(CC(CNC(CCCc2ccccc2F)C(N)=O)NC(=O)[C@H](CC(=O)O)NC(=O)[C@H](CO)NC(=O)[C@@H](NC(=O)C(C)(Cc2ccccc2F)NC(=O)[C@@H](NC(=O)CNC(=O)C(CCC#N)NC(=O)C(C)(C)NC(=O)[C@@H](N)Cc2c[nH]cn2)[C@H](C)O)[C@H](C)O)cc1 (single isomer, unassigned) [compound 192] | 16.6 ± 0.41 | 22.9 ± 0.32 | 36.7 ± 0.11 | 4 ± 0.09 | 2 ± 0.12 | 0 | 0 | 0
